We go through 1 compound from US20080175872A1, “Controlled Release Dosage Form Containing Lercanidipine and a Performance-enhancing Acid” (OSMOTICA CORP., priority 2006, published 2008).

The conditions of data set [1]: oral administration of an immediate release form; cited from earlier work.
A short description of data set [2]: Stability of lercanidipine HCl polymorph II alone or 1/1 with organic acid, impurities by HPLC. It is filed as physicochemical. On the procedure: Analytical testing of the different samples was done by HPLC, column RP18, 300×3.9 mm ID, particle size 4 μm, in acetonitrile-0.15 M sodium perchlorate buffer, pH 3.0, at a flow rate of 1.3 ml/min, at 30° C., detector UV 240 nm. In all cases impurities were reported as % of the area of the impurity peak referred to the area of the main peak (a/a). The lercanidipine is the lercanidipine HCl polymorph II. […] The lercanidipine is the lercanidipine HCl polymorph II.

For data set [3] the following is noted: cited from earlier work.
[4] abbreviates: 50° C., 1.5 month, closed vials.

Each structure is given as a SMILES string. Where “and” joins values, the source holds several entries; their conditions need not be identical. Identical values can stand only once.

On to `COC(=O)C1=C(C)NC(C)=C(C(=O)OC(C)(C)CN(C)CCC(c2ccccc2)c2ccccc2)C1c1cccc([N+](=O)[O-])c1` (centres unmarked) [Lercanidipine, methyl 1,1,N-trimethyl-N-(3,3-diphenylpropyl)-2-aminoethyl 1,4-dihydro-2,6-dimethyl-4-(3-nitrophenyl)pyridine-3,5-dicarboxylate], for which the “peak plasma level (Tmax)” value in data set [1] is 1 to 3 h. Further, in data set [2] (5° C. (reference condition)), the “Impurity 3” value is 0.18 % a/a and 0.27 % a/a; the “Impurity B” value was 0.02 % a/a and 0.01 % a/a; the Maximum unknown impurities is on record as 0.04 % a/a. Further, in data set [2] (50° C. + 75% RH), the “Impurity 3” value is 0.28 % a/a and 0.16 % a/a; the “Impurity B” value stood at 0.01 % a/a; the Maximum unknown impurities is 0.05 % a/a and 0.04 % a/a; the Total impurities was 0.43 % a/a and 0.34 % a/a. In data set [2] (setting [4]), the “Impurity 3” value was 0.22 % a/a and 0.30 % a/a; the “Impurity B” value was determined as 0.01 % a/a; the Maximum unknown impurities is 0.03 % a/a and 0.04 % a/a; the Total impurities is 0.31 % a/a and 0.47 % a/a. The “permeability classification as defined by the FDA” value in data set [3] is “low permeable drug”. For the same compound, the “solubility in gastrointestinal pH range” value in data set [3] (pH range of 1 to 8) is recorded as “essentially insoluble”.
